Laboratory results from patent publication US12479877B2, “Methods for purifying steviol glycosides and uses of the same” (PureCircle Sdn. Bhd., priority 2010, dated 2025).
“And” between values parts separate entries of the source, which are not always exact repeats. Equal values may be shown once.

How the values were obtained:
[1] = test system: one experienced taster; test: Isosweetness determination of Reb X in citric buffer against sucrose controls; type: in vivo, human; conditions: for Estimated % Sweetness Equivalence in Citric Buffer at 4° C.: citric buffer pH 3.1, 4° C.; for Estimated % Sweetness Equivalence in Citric Buffer at RT: citric buffer pH 3.1, RT
Description: The isosweetness levels of Reb X in a citric buffer system at room temperature and 4° C. were evaluated. A 600 ppm stock solution of Reb X was prepared by adding a mass of 0.15 g into a 250 mL sample of citric buffer (CB) solution. The mixture was moderately stirred at warmer temperature (up to ca. 52° C.) on a heated stirrer for about 15-20 minutes and then cooled. The citric buffer was prepared by adding 1.6 g citric acid, 0.6 g potassium citrate and 0.253 g sodium benzoate in 1 L of carbon-treated water. The pH of the mixture was 3.1. Seven diluted Reb X solutions at […], 25, 50, 100, 200, 300, 400 and 500 ppm were prepared by adding a 2.08, 4.17, 8.33, 16.67, 25.00, 33.33 and 41.67 mL Reb X stock solution, respectively, into each 50 mL solution of CB. The controls of 0.75%, 2%, 4%, 6%, 8%, 10% and 15% sucrose equivalence (SE) were also prepared by adding sugar (w/v) into the CB. The mixtures were moderately stirred and then ready for the isosweetness determination test. The Reb X samples were then evaluated against the control sugar samples in citric buffer at room temperature (RT) and 4° C. (in an ice bath) by one experienced taster for an isosweetness determination using the controlled, multi-sip and swallow taste method.

[2] = Beverage formulations: taste properties compared with Reb A; type: in vivo, human
[3] = test system: panelists; test: Sensory properties in acidified water (pH 3.0) at 500 mg/L, 20 panelists; type: in vivo, human; conditions: 500 ppm, acidified water pH 3.0, 20 panelists
Description: The sensory properties of Reb X were evaluated in acidified water (pH 3.0 by phosphoric acid) at 500 mg/L concentration by 20 panelists.

[4] = Solubility studies in carbon-treated water and citrate buffer; type: physicochemical
Description: Citric buffer was prepared by mixing 1.171 g/L citric acid, 0.275 g/L sodium citrate and 0.185 g/L sodium benzoate with carbon-treated water, with a final pH of 3.22. The mixtures were moderately stirred at room temperature. The Reb X sample was then evaluated against the two control Reb A and Reb D samples in water and citric buffer at room temperature (RT) and at 4° C. in an ice bath by one experienced panelist for any tasting quality determinations using the controlled, multi-sip and swallow taste method shown below:
The samples used to evaluate the taste properties in Example 2 were also used for solubility studies.

[5] = test system: semi-trained panel members; test: Sensory comparison of Reb X and Reb A, iso-sweet samples at 8% sucrose equivalent; type: in vivo, human
Description: To compare the sensory attributes between Reb X and Reb A, iso-sweet samples having 8% sucrose equivalent sweetness were made with filtered water as shown in Table 8. An 8% sugar solution in water at room temperature was used as a control. An 8% sugar solution in the acidified solution was used as the control. The samples prepared with filtered water were evaluated by 34 semi-trained panel members at room temperature. The samples prepared with acidified water were evaluated by 23 semi-trained panel members at room temperature. Samples were given to the panel members sequentially and coded with triple digit numbers. The order of sample presentation was randomized to avoid order of presentation bias. Water and unsalted crackers were provided in order to cleanse the palate. The panel members were asked to rate different attributes including sweetness onset, total sweetness, rounded sweetness, bitterness, acidity, leafy note, licorice, astringency, mouthfeel, mouth coating, sweet lingering, and bitter lingering. Samples were rated on a scale of zero (0) to ten (10), with zero indicating immediate onset, no intensity, watery/low viscosity, or very sharp peak, and ten indicating very delayed onset, high intensity, thick/high viscosity, or very round peak. One-way single factor ANOVA was used to analyze sensory results, where α=0.05.

[6] = test system: panel of trained tasters; test: Reb X sweetness vs. concentration, matched to sucrose references; type: in vivo, human; conditions: for Reb X Concentration (ppm) matching sucrose reference: Reb X 98% purity, water at room temperature
Description: 2.5%, 5.0%, 7.5%, and 10.0% sucrose solutions were prepared in neutral (7.0 pH) and acidified water (3.2 pH) as reference samples. Solutions containing Reb X (98% purity) were prepared to match the sweetness of each sucrose reference in neutral and acidified water. Samples were tasted and verified by a panel of trained tasters in water at room temperature.

[7] = acidified water (250 ppm citric acid, pH 3.2), 23 panel members, FIG. 12
[8] = Sweetness Equivalent (SE) 10.0%

- Estimated time to solubilize ([4]; 0.01% in carbon-treated water): 15 min
- Estimated time to solubilize ([4]; 0.01% in citrate buffer): 25 min
- Estimated time to solubilize ([4]; 0.02% in carbon-treated water): 25 min
- Estimated time to solubilize ([4]; 0.02% in citrate buffer): 25 min
- Estimated time to solubilize ([4]; 0.04% in carbon-treated water): 33 min
- Estimated time to solubilize ([4]; 0.04% in citrate buffer): 35 min
- Estimated time to solubilize ([4]; 0.05% in carbon-treated water): 39 min
- Estimated time to solubilize ([4]; 0.05% in citrate buffer): 42 min
- Estimated time to solubilize ([4]; 0.075% in carbon-treated water): 55 min
- Estimated time to solubilize ([4]; 0.075% in citrate buffer): 55 min
- Estimated time to solubilize ([4]; 0.10% in carbon-treated water): 106 min
- Estimated time to solubilize ([4]; 0.10% in citrate buffer): 106 min
- Estimated time to solubilize ([4]; 0.15% in carbon-treated water): Insoluble after 20 hours
- Estimated time to solubilize ([4]; 0.15% in citrate buffer): Insoluble after 20 hours
Structure (SMILES): C=C1C[C@@]23CCC4[C@](C)(C(=O)OC5OC(CO)C(O)C(OC6OC(CO)C(O)C(O)C6O)C5OC5OC(CO)C(O)C(O)C5O)CCC[C@@]4(C)[C@@H]2CCC1(OC1OC(CO)C(O)C(OC2OC(CO)C(O)C(O)C2O)C1OC1OC(CO)C(O)C(O)C1O)C3 (stereo partly drawn) [Reb X, (13-[2-O-β-D-glucopyranosyl-3-O-β-D-glucopyranosyl-β-D-glucopyranosyl)oxy] ent kaur-16-en-19-oic acid-[2-O-β-D-glucopyranosyl-3-O-β-D-glycopyranosyl) ester]
- Estimated % Sweetness Equivalence in Citric Buffer at 4° C. ([1]; Reb X 12.5 ppm): 0.75%
- Estimated % Sweetness Equivalence in Citric Buffer at RT ([1]; Reb X 12.5 ppm): 0.5%
- Estimated % Sweetness Equivalence in Citric Buffer at 4° C. ([1]; Reb X 25 ppm): 1.5%
- Estimated % Sweetness Equivalence in Citric Buffer at RT ([1]; Reb X 25 ppm): 1.0-1.5%
- Estimated % Sweetness Equivalence in Citric Buffer at 4° C. ([1]; Reb X 50 ppm): 3.0-3.5%
- Estimated % Sweetness Equivalence in Citric Buffer at RT ([1]; Reb X 50 ppm): 3.25-3.75%
- Estimated % Sweetness Equivalence in Citric Buffer at 4° C. ([1]; Reb X 100 ppm): 5.5%
- Estimated % Sweetness Equivalence in Citric Buffer at RT ([1]; Reb X 100 ppm): 5.0%
- Estimated % Sweetness Equivalence in Citric Buffer at 4° C. ([1]; Reb X 200 ppm): 8.0%
- Estimated % Sweetness Equivalence in Citric Buffer at RT ([1]; Reb X 200 ppm): 8.0%
- Estimated % Sweetness Equivalence in Citric Buffer at 4° C. ([1]; Reb X 300 ppm): 11.0-12.0%
- Estimated % Sweetness Equivalence in Citric Buffer at RT ([1]; Reb X 300 ppm): 12.0%
- Estimated % Sweetness Equivalence in Citric Buffer at 4° C. ([1]; Reb X 400 ppm): 14.0-14.5%
- Estimated % Sweetness Equivalence in Citric Buffer at RT ([1]; Reb X 400 ppm): 14.0-14.5%
- Estimated % Sweetness Equivalence in Citric Buffer at 4° C. ([1]; Reb X 500 ppm): 15.5-16.0%
- Estimated % Sweetness Equivalence in Citric Buffer at RT ([1]; Reb X 500 ppm): 15.5-16.0%
- Estimated % Sweetness Equivalence in Citric Buffer at 4° C. ([1]; Reb X 600 ppm): 16.5-17.0%
- Estimated % Sweetness Equivalence in Citric Buffer at RT ([1]; Reb X 600 ppm): 16.5-17.0%
- Sweetness intensity difference between RT and 4° C. ([1]; Reb X concentration range, direct comparison with control sucrose at similar temperatures): no significant sweetness intensity difference
- Sweetness tasting quality ([1]; all concentrations (12.5-600 ppm) in citric buffer): pleasant sweetness tasting quality with a slight delay of sweetness onset and no bitterness
- Off-flavors ([1]; any Reb X concentrations in CB at 4° C., except at least ca. 300 ppm): No off-flavors
- Sweetness lingering ([1]; at least ca. 300 ppm Reb X in CB at 4° C.): longer sweetness lingering
- Taste properties compared to Reb A drink ([2]; flavored zero caloric black tea drink, 250 ppm Reb X vs 250 ppm Reb A): much cleaner in finish with less sweetness linger and a more rounded overall sweetness profile
- Reb X level closest in sweetness level to a 11.5 Brix high fructose corn syrup sweetened orange flavored sparkling beverage ([2]; zero caloric orange-flavored sparkling beverage base): 500 ppm and 550 ppm
- Taste compared to Reb A-containing formulations ([2]; zero caloric orange-flavored sparkling beverage, Reb X 400 to 750 ppm in 50 ppm increments): significantly better than comparable Reb A-containing formulations
- Taste properties compared to Reb A drink ([2]; zero calorie enhanced water drink, 200 ppm Reb X vs 200 ppm Reb A): cleaner in finish and had reduced sweetness linger and a more rounded overall sweetness taste quality
- Astringent taste: Number of panelists detected the attribute [3]: 0
- Bitter taste: Number of panelists detected the attribute [3]: 0
- Licorice taste: Number of panelists detected the attribute [3]: 0
- Overall evaluation: Satisfactory (number of panelists of 20) [3]: (20 of 20)
- Quality of sweet taste: Clean (number of panelists of 20) [3]: Clean (20
- Sweet Aftertaste: Number of panelists detected the attribute [3]: 0
- Taste profile compared to already known steviol glycosides [3]: superior taste profile
- Initial solubility test (comparative) ([4]; 500 ppm concentrations in citrate buffer): significantly greater solubility than that of Reb D and significantly less solubility than Reb A
- Perceived sweetness compared to Reb A [5, 7]: higher sweetness of Reb X over Reb A is significant
- Sweetness onset, non-sweet taste and bitterness lingering compared to Reb A [5, 7]: faster sweetness onset, reduced non-sweet taste (bitterness, sour, astringency) and bitterness lingering
- Bitterness, astringency and bitter lingering compared to Reb A ([5]; filtered water, room temperature, 34 panel members, FIG. 11): reduced perception of bitterness, astringency and bitter lingering compared to Reb A
- Sweetness Factor (SF) ([6]; Sweetness Equivalent (SE) 2.5%): 521
- Reb X Concentration (ppm) matching sucrose reference ([6]; Sweetness Equivalent (SE) 2.5%): 48 ppm
- Sweetness Factor (SF) ([6]; Sweetness Equivalent (SE) 5.0%): 380
- Reb X Concentration (ppm) matching sucrose reference ([6]; Sweetness Equivalent (SE) 5.0%): 132 ppm
- Sweetness Factor (SF) ([6]; Sweetness Equivalent (SE) 7.5%): 295
- Reb X Concentration (ppm) matching sucrose reference ([6]; Sweetness Equivalent (SE) 7.5%): 254 ppm
- Sweetness Factor (SF) [6, 8]: 237
- Reb X Concentration (ppm) matching sucrose reference [6, 8]: 422 ppm
